From patent US9556179B2 (BRISTOL-MYERS SQUIBB COMPANY, priority 2012, dated 2017) come the findings set out here.

SMILES strings stand for the structures.

The target in one assay is CK1δ (Homo sapiens (Human), UniProt P48730). Nature of the assay: CK1δ kinase assay (Caliper LABCHIP electrophoretic separation of fluoresceinated peptide substrate and product). Format: biochemical. Conditions: 200 pM enzyme, 50 μM ATP, 22 hours at room temperature. In short, it runs like this:
(§1)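 Kinase reactions ran 22 h at room temperature, were stopped with EDTA, and phosphorylated product was separated electrophoretically from unphosphorylated fluoresceinated peptide. Compounds were tested at eleven concentrations from 10 mM DMSO stocks. IC50 by non-linear regression.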

For a further assay, the target named is CK1ε (Homo sapiens (Human), UniProt P49674). Nature of the assay: CK1ε kinase assay (Caliper LABCHIP electrophoretic separation of fluoresceinated peptide substrate and product). Conditions: 200 pM enzyme, 50 μM ATP, 22 hours at room temperature. Format: biochemical. The procedure, abridged:
as §1

CK1δ, sequence (P48730 whole entry): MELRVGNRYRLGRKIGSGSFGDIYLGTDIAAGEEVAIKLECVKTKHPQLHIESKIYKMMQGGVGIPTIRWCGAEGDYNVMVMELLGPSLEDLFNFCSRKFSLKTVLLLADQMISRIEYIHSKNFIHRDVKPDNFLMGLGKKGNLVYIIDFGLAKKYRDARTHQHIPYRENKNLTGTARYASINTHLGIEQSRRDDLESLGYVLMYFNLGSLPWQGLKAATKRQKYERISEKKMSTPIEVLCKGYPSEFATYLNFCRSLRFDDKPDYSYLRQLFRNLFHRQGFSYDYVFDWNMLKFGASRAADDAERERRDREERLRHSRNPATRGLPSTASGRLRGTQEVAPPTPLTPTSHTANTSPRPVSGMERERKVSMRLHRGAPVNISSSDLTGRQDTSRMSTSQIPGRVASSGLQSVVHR
CK1ε, sequence (P49674 whole entry): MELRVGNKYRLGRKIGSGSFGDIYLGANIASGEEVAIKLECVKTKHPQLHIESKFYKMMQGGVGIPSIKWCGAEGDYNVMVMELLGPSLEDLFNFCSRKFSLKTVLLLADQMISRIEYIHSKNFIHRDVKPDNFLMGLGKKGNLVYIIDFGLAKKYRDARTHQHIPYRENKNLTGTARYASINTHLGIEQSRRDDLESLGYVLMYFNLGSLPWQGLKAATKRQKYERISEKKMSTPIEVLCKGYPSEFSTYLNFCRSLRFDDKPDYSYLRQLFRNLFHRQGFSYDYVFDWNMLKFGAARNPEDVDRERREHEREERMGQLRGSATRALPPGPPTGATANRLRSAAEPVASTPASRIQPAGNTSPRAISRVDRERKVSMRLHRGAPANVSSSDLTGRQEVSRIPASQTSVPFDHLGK

As a reminder, the IC50 is the concentration at which inhibition is half-maximal. The low end stands for greater potency in that assay, the high end for weaker potency in that assay. For `Cc1cc[nH]c1C(=O)Nc1cn2nc(-c3c(-c4ccc(F)cc4)nc(C)n3C)ccc2n1` [Compound 326, N-(6-(4-(4-fluorophenyl)-1,2-dimethyl-1H-imidazol-5-yl)imidazo[1,2-b]pyridazin-2-yl)-3-methyl-1H-pyrrole-2-carboxamide], the IC50 against CK1δ came out at 2.68 nM; on CK1ε, 12.3 nM.
For `Cc1nc(-c2ccc(F)cc2)c(-c2ccc3nc(NC(=O)N4CCCC4)cn3n2)n1C` [Compound 409, N-(6-(4-(4-fluorophenyl)-1,2-dimethyl-1H-imidazol-5-yl)imidazo[1,2-b]pyridazin-2-yl)pyrrolidine-1-carboxamide], the IC50 against CK1δ came out at 58 nM; against CK1ε it was 30.8 nM.
With `CC(C)(C)C(=O)N1CCn2c(nc(-c3ccc(F)cc3)c2-c2ccc3nc(NC(=O)c4ccnc(F)c4)cn3n2)C1` [Compound 464, 2-Fluoro-N-(6-(2-(4-fluorophenyl)-7-pivaloyl-5,6,7,8-tetrahydroimidazo[1,2-a]pyrazin-3-yl)imidazo[1,2-b]pyridazin-2-yl)isonicotinamide], the values for the IC50 against CK1δ and at CK1ε were 0.1 nM and 2.3 nM, respectively.
Turning to `O=C(Nc1cn2nc(-c3c(-c4ccc(F)cc4)nc4ccccn34)ccc2n1)c1ccccc1` [Compound 191, N-(6-(2-(4-fluorophenyl)imidazo[1,2-a]pyridin-3-yl)imidazo[1,2-b]pyridazin-2-yl)benzamide], the IC50 against CK1δ was found to be 2.11 nM; against CK1ε it was 3.02 nM.
Take `O=C(Nc1cn2nc(-c3c(-c4ccc(F)cc4)nc4n3CCCC4)ccc2n1)c1cccc(-c2cccnc2)c1` [Compound 442, N-(6-(2-(4-Fluorophenyl)-5,6,7,8-tetrahydroimidazo[1,2-a]pyridin-3-yl)imidazo[1,2-b]pyridazin-2-yl)-3-(pyridin-3-yl)benzamide]: the figures for the IC50 against CK1δ and at CK1ε were 0.4 nM and 2.5 nM, respectively.
Consider `O=C(Nc1cn2nc(-c3c(-c4ccc(F)cc4)nc4n3CCN(CCC(F)(F)F)C4)ccc2n1)c1ccnc(F)c1` [Compound 478, 2-Fluoro-N-(6-(2-(4-fluorophenyl)-7-(3,3,3-trifluoropropyl)-5,6,7,8-tetrahydroimidazo[1,2-a]pyrazin-3-yl)imidazo[1,2-b]pyridazin-2-yl)isonicotinamide], for which the concentration for half-maximal inhibition (IC50) was determined as 0.4 nM against CK1δ and 2.3 nM on CK1ε.
Turning to `O=C(Nc1cn2nc(-c3c(-c4ccc(F)cc4)ncn3CCN3CCCC3=O)ccc2n1)c1ccnc(F)c1` [Compound 272, 2-fluoro-N-(6-(4-(4-fluorophenyl)-1-(2-(2-oxo-1-pyrrolidinyl)ethyl)-1H-imidazol-5-yl)imidazo[1,2-b]pyridazin-2-yl)isonicotinamide], the figures for the IC50 against CK1δ and against CK1ε were 1.65 nM and 16.6 nM, respectively.
For `O=C(Nc1cn2nc(-c3c(-c4ccc(F)cc4)nc4n3CCC4)ccc2n1)c1ccncc1` [Compound 438, N-(6-(2-(4-Fluorophenyl)-6,7-dihydro-5H-pyrrolo[1,2-a]imidazol-3-yl)imidazo[1,2-b]pyridazin-2-yl)isonicotinamide], the values for the 50% inhibitory concentration (IC50) on CK1δ and against CK1ε were 0.3 nM and 2.1 nM, respectively.
In the same order, the values of `O=C(Nc1cn2nc(-c3c(-c4ccc(F)cc4)ncn3C3CCN(C[C@@H](O)C(F)(F)F)CC3)ccc2n1)c1ccnc(F)c1` [Compound 37, (R)-2-fluoro-N-(6-(4-(4-fluorophenyl)-1-(1-(3,3,3-trifluoro-2-hydroxypropyl)piperidin-4-yl)-1H-imidazol-5-yl)imidazo[1,2-b]pyridazin-2-yl)isonicotinamide] are 0.296 nM and 1.27 nM.
With `CC(C)(NC(=O)N1CCn2c(nc(-c3ccc(F)cc3)c2-c2ccc3nc(NC(=O)c4ccnc(F)c4)cn3n2)C1)C(F)(F)F` [Compound 484, 3-(2-(2-Fluoroisonicotinamido)imidazo[1,2-b]pyridazin-6-yl)-2-(4-fluorophenyl)-N-(1,1,1-trifluoro-2-methylpropan-2-yl)-5,6-dihydroimidazo[1,2-a]pyrazine-7(8H)-carboxamide], the concentration for half-maximal inhibition (IC50) against CK1δ worked out at 0.6 nM; at CK1ε, 6.7 nM.
`O=C(Nc1cn2nc(-c3c(-c4cccc(F)c4)ncn3CC(F)F)ccc2n1)c1ccnc(F)c1` [Compound 245, N-(6-(1-(2,2-difluoroethyl)-4-(3-fluorophenyl)-1H-imidazol-5-yl)imidazo[1,2-b]pyridazin-2-yl)-2-fluoroisonicotinamide]: the results for the 50% inhibitory concentration (IC50) on CK1δ and at CK1ε were 0.899 nM and 7.43 nM, respectively.
Consider `O=C(Nc1cn2nc(-c3c(-c4ccc(F)cc4)ncn3C3CCN(C(=O)CCCl)CC3)ccc2n1)c1ccnc(F)c1` [Compound 70, N-(6-(1-(1-(3-chloropropanoyl)piperidin-4-yl)-4-(4-fluorophenyl)-1H-imidazol-5-yl)imidazo[1,2-b]pyridazin-2-yl)-2-fluoroisonicotinamide], for which the concentration for half-maximal inhibition (IC50) on CK1δ was 0.143 nM; on CK1ε it was 0.493 nM.
For the molecule `Cc1nc(-c2ccc(F)cc2)c(-c2ccc3nc(NC(=O)c4cc5ccc(F)cc5[nH]4)cn3n2)n1C` [Compound 332, 6-fluoro-N-(6-(4-(4-fluoro-phenyl)-1,2-dimethyl-1H-imidazol-5-yl)imidazo[1,2-b]pyridazin-2-yl)-1H-indole-2-carboxamide], the results for the IC50 at CK1δ and against CK1ε were 0.87 nM and 6.86 nM, respectively.
For `O=C(Nc1cn2nc(-c3c(-c4ccc(F)cc4)ncn3C3CCN(C(=O)OCC4CC4(F)F)CC3)ccc2n1)c1ccnc(F)c1` (centres unmarked) [Compound 82, (2,2-difluorocyclopropyl)methyl 4-(5-(2-(2-fluoroisonicotinamido)imidazo[1,2-b]pyridazin-6-yl)-4-(4-fluorophenyl)-1H-imidazol-1-yl)piperidine-1-carboxylate], the IC50 came out at 0.247 nM on CK1δ and 1.59 nM against CK1ε.
On the same counts, the results for `O=C(Nc1cn2nc(-c3c(-c4ccc(F)cc4)ncn3C3CC(F)(F)C3)ccc2n1)c1ccnc(F)c1` [Compound 262, N-(6-(1-(3,3-difluorocyclobutyl)-4-(4-fluorophenyl)-1H-imidazol-5-yl)imidazo[1,2-b]pyridazin-2-yl)-2-fluoroisonicotinamide] are 0.331 nM and 3.48 nM.
As for `Cc1nc(-c2ccc(F)cc2)c(-c2ccc3nc(NC(=O)c4cccnn4)cn3n2)n1C` [Compound 386, N-(6-(4-(4-fluorophenyl)-1,2-dimethyl-1H-imidazol-5-yl)imidazo[1,2-b]pyridazin-2-yl)pyridazine-3-carboxamide], the concentration for half-maximal inhibition (IC50) on CK1δ was 10.5 nM; at CK1ε, 55.1 nM.
Consider `Cc1nc(-c2ccc(Cl)cc2)c(-c2ccc3nc(NC(=O)c4ccnc(F)c4)cn3n2)n1CC(F)(F)F` [Compound 295, N-(6-(4-(4-chlorophenyl)-2-methyl-1-(2,2,2-trifluoroethyl)-1H-imidazol-5-yl)imidazo[1,2-b]pyridazin-2-yl)-2-fluoroisonicotin-amide], for which the IC50 at CK1δ worked out at 0.126 nM; at CK1ε it was 5.95 nM.
For the molecule `Cc1nc(-c2ccc(F)cc2)c(-c2ccc3nc(NC(=O)c4coc(-c5ccncc5)n4)cn3n2)n1C` [Compound 304, N-(6-(4-(4-fluorophenyl)-1,2-dimethyl-1H-imidazol-5-yl)imidazo[1,2-b]pyridazin-2-yl)-2-(pyridin-4-yl)oxazole-4-carboxamide], the 50% inhibitory concentration (IC50) against CK1δ came to 3.44 nM; against CK1ε it was 48.5 nM.
Turning to `Cc1nc(-c2ccc(F)cc2)c(-c2ccc3nc(NC(=O)c4ccnc(F)c4)cn3n2)n1CC(F)F` [Compound 284, N-(6-(1-(2,2-Difluoroethyl)-4-(4-fluorophenyl)-2-methyl-1H-imidazol-5-yl)imidazo[1,2b]-pyridazin-2-yl)-2-fluoroisonicotinamide], the IC50 amounted to 0.384 nM at CK1δ and 2.02 nM against CK1ε.
On the same counts, the results for `Cc1nc(-c2ccc(F)cc2)c(-c2ccc3nc(NC(=O)c4cn(C)cn4)cn3n2)n1C` [Compound 362, N-(6-(4-(4-fluorophenyl)-1,2-dimethyl-1H-imidazol-5-yl)imidazo[1,2-b]pyridazin-2-yl)-1-methyl-1H-imidazole-4-carboxamide] are 6.34 nM and 87.5 nM.
On to `O=C(CO)Nc1cn2nc(-c3c(-c4ccc(F)cc4)ncn3CCN3CCOCC3)ccc2n1` [Compound 165, N-(6-(4-(4-fluorophenyl)-1-(2-morpholinoethyl)-1H-imidazol-5-yl)imidazo [1,2-b]pyridazin-2-yl)-2-hydroxyacetamide], for which the IC50 on CK1δ amounted to 4.64 nM; against CK1ε it was 53.6 nM.
For the molecule `O=C(Nc1cn2nc(-c3c(-c4ccc(F)cc4)ncn3-c3cccnc3)ccc2n1)c1ccnc(N2CCOCC2)c1` [Compound 424, N-(6-(4-(4-Fluorophenyl)-1-(pyridin-3-yl)-1H-imidazol-5-yl)imidazo[1,2-b]pyridazin-2-yl)-2-morpholinoisonicotinamide], the IC50 against CK1δ was found to be 1 nM; at CK1ε, 13.6 nM.
Regarding `Cc1cc(C)n(CCC(=O)Nc2cn3nc(-c4c(-c5ccc(F)cc5)nc5ccccn45)ccc3n2)n1` [Compound 215, 3-(3,5-dimethyl-1H-pyrazol-1-yl)-N-(6-(2-(4-fluorophenyl)imidazo[1,2-a]pyridin-3-yl)imidazo[1,2-b]pyridazin-2-yl)propanamide], the IC50 against CK1δ was 1.67 nM; at CK1ε it was 17.1 nM.
Take `Cc1nc(-c2ccc(F)cc2)c(-c2ccc3nc(NC(=O)[C@@H]4CCCN4)cn3n2)n1C` [Compound 315, (S)-N-(6-(4-(4-fluorophenyl)-1,2-dimethyl-1H-imidazol-5-yl)imidazo[1,2-b]pyridazin-2-yl)pyrrolidine-2-carbox-amide]: the concentration for half-maximal inhibition (IC50) against CK1δ was 19.8 nM; at CK1ε, 375 nM.
For the molecule `CC(C)NC(=O)N1CCn2c(nc(-c3ccc(F)cc3)c2-c2ccc3nc(NC(=O)c4ccnc(F)c4)cn3n2)C1` [Compound 482, 3-(2-(2-Fluoroisonicotinamido)imidazo[1,2-b]pyridazin-6-yl)-2-(4-fluorophenyl)-N-isopropyl-5,6-dihydroimidazo[1,2-a]pyrazine-7(8H)-carboxamide], the IC50 against CK1δ worked out at 1.1 nM; against CK1ε it was 11.9 nM.
